Assay results as given in patent US4100346A, “Certain 7(o-amino-methyl- or methylaminomethylphenyl- or cyclohexadienyl- or thienylacetamide)-3[1-carboxymethyl-(or ethyl- or propyl-)-tetrazol-5-ylthiomethyl]-3-cephem-4-carboxylic acids” (Bristol-Myers Company, priority 1976, dated 1978).
≈ marks a conversion by molar mass, not a printed value. Read-outs that look alike come from different tables or passages of the source.

Columns and labels:
Bacteroides Fragilis = test: Growth inhibitory activity, antibiotic dilution technique (obligate anaerobes); type: cell-based; conditions: 3 strains, geometric mean when applicable, read-out: Minimum inhibitory concentration
Description: Antibiotic spectrum. […] Procedures were as follows:
c. Obligate anaerobes. The assay was performed on solid medium, consisting of Brain Heart Infusion Broth (BBL) supplemented with 5% defibrinated sheep blood and 1% Ionagar (Colab). […] The plates were incubated at 37° C. for 48 hours under the oxygen-free conditions attained with a Gas-Pak (BBL) Brewer jar system.

Staphylococcus Aureus = test: Effect of inoculum size on susceptibility of Staphylococcus aureus; type: cell-based; conditions: for MIC: Staphylococcus aureus, geometric means, read-out: Minimum inhibitory concentration
Klebsiella pneumoniae [1] = test: Minimum growth inhibitory and bactericidal concentrations for Enterobacteriaceae; type: cell-based; conditions: for MBC: read-out: MBC, minimum bactericidal concentration; for MIC: read-out: MIC, Minimum growth inhibitory concentration
Excerpt: (§1) Miscellaneous. Methods for determining bactericidal activity and susceptibility to cell-free β-lactamase were those previously used; Leitner et al., BL-S640, A Cephalosporin With a Broad Spectrum of Antibacterial Activity: Properties in vitro, Antimicrob. Agents Chemother. 7:298-305 (1975).
(§2) *MIC, Minimum growth inhibitory concentration; MBC, minimum bactericidal
(§3) concentration; expressed as micrograms per milliliter. The inoculum was […]

Proteus mirabilis [2] = test: as above; type: cell-based; conditions: for MBC: read-out: MBC, minimum bactericidal concentration; for MIC: read-out: MIC, Minimum growth inhibitory concentration
Excerpt: as §1, §2, §3

Proteus vulgaris = test: as above; type: cell-based; conditions: Proteus vulgaris, inoculum 10^4 cells; for MBC: read-out: MBC, minimum bactericidal concentration; for MIC: read-out: MIC, Minimum growth inhibitory concentration
Excerpt: as §1, §2, §3

[3] = Recovery in urine after intramuscular injection; conditions: rat, im, 10 mg/kg
Edwardsiella tarda = test: Growth inhibitory activity, antibiotic dilution technique; conditions: read-out: Minimum inhibitory concentration
Pasteurella multocida = test: as above; conditions: read-out: Minimum inhibitory concentration
[4] = tested on: Bordetella bronchiseptica; test: as above; conditions: read-out: Minimum inhibitory concentration
Escherichia coli = test: Effect of inoculum size on susceptibility of Enterobacteriaceae
Klebsiella pneumoniae [5] = test: as above
Enterobacter cloacae = test: as above
Enterobacter aerogenes = test: as above; conditions: Klebsiella aerogenes, read-out: Minimum Inhibitory Concentration, Enterobacter aerogenes strain 1
Proteus mirabilis [6] = test: as above
[7] = Klebsiella pneumoniae strain 1, inoculum 10^4 cells
[8] = Klebsiella pneumoniae strain 2, inoculum 10^4 cells
[9] = Klebsiella pneumoniae strain 3, inoculum 10^4 cells
[10] = Klebsiella pneumoniae strain 4, inoculum 10^4 cells
[11] = Klebsiella pneumoniae strain 5, inoculum 10^4 cells
[12] = Klebsiella pneumoniae strain 6, inoculum 10^4 cells
[13] = Proteus mirabilis strain 1, inoculum 10^4 cells
[14] = Proteus mirabilis strain 2, inoculum 10^4 cells
[15] = Proteus mirabilis strain 3, inoculum 10^4 cells
[16] = Proteus mirabilis strain 4, inoculum 10^4 cells
[17] = Proteus mirabilis strain 5, inoculum 10^4 cells

Cc1nnc(SCC2=C(C(=O)O)N3C(=O)[C@@H](NC(=O)Cn4cnnn4)[C@H]3SC2)s1 [Cefazolin]
MIC (Bacteroides Fragilis): 50 µg/mL (≈ 110 µM)
MIC (Staphylococcus Aureus; Lacking penicillinase, 3 strains, A, Inoculum of 10^2 organisms): 0.13 µg/mL (≈ 0.286 µM)
MIC (Staphylococcus Aureus; Lacking penicillinase, 3 strains, B, inoculum of 10^6 organisms): 0.2 µg/mL (≈ 0.44 µM)
MIC (Staphylococcus Aureus; Penicillinase producer, 26 strains, A, Inoculum of 10^2 organisms): 0.22 µg/mL (≈ 0.484 µM)
MIC (Staphylococcus Aureus; Penicillinase producer, 26 strains, B, inoculum of 10^6 organisms): 0.79 µg/mL (≈ 1.74 µM)
effect of cell concentration on growth inhibitory activity (Staphylococcus Aureus; penicillinase-producing strains): moderately
MBC (Klebsiella pneumoniae [1]; [7]): 2 µg/mL (≈ 4.4 µM)
MIC (Klebsiella pneumoniae [1]; [7]): 2 µg/mL (≈ 4.4 µM)
MBC (Klebsiella pneumoniae [1]; [8]): 2 µg/mL (≈ 4.4 µM)
MIC (Klebsiella pneumoniae [1]; [8]): 1 µg/mL (≈ 2.2 µM)
MBC (Klebsiella pneumoniae [1]; [9]): 2 µg/mL (≈ 4.4 µM)
MIC (Klebsiella pneumoniae [1]; [9]): 1 µg/mL (≈ 2.2 µM)
MBC (Klebsiella pneumoniae [1]; [10]): 4 µg/mL (≈ 8.8 µM)
MIC (Klebsiella pneumoniae [1]; [10]): 2 µg/mL (≈ 4.4 µM)
MBC (Klebsiella pneumoniae [1]; [11]): 2 µg/mL (≈ 4.4 µM)
MIC (Klebsiella pneumoniae [1]; [11]): 2 µg/mL (≈ 4.4 µM)
MBC (Klebsiella pneumoniae [1]; [12]): 4 µg/mL (≈ 8.8 µM)
MIC (Klebsiella pneumoniae [1]; [12]): 2 µg/mL (≈ 4.4 µM)
MBC (Proteus mirabilis [2]; [13]): 8 µg/mL (≈ 17.6 µM)
MIC (Proteus mirabilis [2]; [13]): 4 µg/mL (≈ 8.8 µM)
MBC (Proteus mirabilis [2]; [14]): 16 µg/mL (≈ 35.2 µM)
MIC (Proteus mirabilis [2]; [14]): 8 µg/mL (≈ 17.6 µM)
MBC (Proteus mirabilis [2]; [15]): 8 µg/mL (≈ 17.6 µM)
MIC (Proteus mirabilis [2]; [15]): 8 µg/mL (≈ 17.6 µM)
MBC (Proteus mirabilis [2]; [16]): 8 µg/mL (≈ 17.6 µM)
MIC (Proteus mirabilis [2]; [16]): 4 µg/mL (≈ 8.8 µM)
MBC (Proteus mirabilis [2]; [17]): 8 µg/mL (≈ 17.6 µM)
MIC (Proteus mirabilis [2]; [17]): 8 µg/mL (≈ 17.6 µM)
MBC (Proteus vulgaris; Proteus vulgaris strain 1): 4 µg/mL (≈ 8.8 µM)
MIC (Proteus vulgaris; Proteus vulgaris strain 1): 4 µg/mL (≈ 8.8 µM)
MBC (Proteus vulgaris; Proteus vulgaris strain 2): 16 µg/mL (≈ 35.2 µM)
MIC (Proteus vulgaris; Proteus vulgaris strain 2): 8 µg/mL (≈ 17.6 µM)
MBC (Proteus vulgaris; Proteus vulgaris strain 4): 16 µg/mL (≈ 35.2 µM)
MIC (Proteus vulgaris; Proteus vulgaris strain 4): 8 µg/mL (≈ 17.6 µM)
dose excreted at 24 h [3]: 75%
MIC (Edwardsiella tarda): 0.71 µg/mL (≈ 1.56 µM)
MIC (Pasteurella multocida): 0.5 µg/mL (≈ 1.1 µM)
MIC [4]: 125 µg/mL (≈ 275 µM)
MIC (Escherichia coli; read-out: Minimum Inhibitory Concentration, Escherichia coli strain 1, A, Inoculum of 10^2 organisms): 1 µg/mL (≈ 2.2 µM)
MIC (Escherichia coli; read-out: Minimum Inhibitory Concentration, Escherichia coli strain 1, B, Inoculum of 10^6 organisms): 4 µg/mL (≈ 8.8 µM)
MIC (Escherichia coli; read-out: Minimum Inhibitory Concentration, Escherichia coli strain 2, A, Inoculum of 10^2 organisms): 2 µg/mL (≈ 4.4 µM)
MIC (Escherichia coli; read-out: Minimum Inhibitory Concentration, Escherichia coli strain 2, B, Inoculum of 10^6 organisms): 16 µg/mL (≈ 35.2 µM)
MIC (Escherichia coli; read-out: Minimum Inhibitory Concentration, Escherichia coli strain 3, A, Inoculum of 10^2 organisms): 1 µg/mL (≈ 2.2 µM)
MIC (Escherichia coli; read-out: Minimum Inhibitory Concentration, Escherichia coli strain 3, B, Inoculum of 10^6 organisms): 2 µg/mL (≈ 4.4 µM)
MIC (Escherichia coli; read-out: Minimum Inhibitory Concentration, Escherichia coli strain 4, A, Inoculum of 10^2 organisms): 1 µg/mL (≈ 2.2 µM)
MIC (Escherichia coli; read-out: Minimum Inhibitory Concentration, Escherichia coli strain 4, B, Inoculum of 10^6 organisms): 2 µg/mL (≈ 4.4 µM)
MIC (Escherichia coli; read-out: Minimum Inhibitory Concentration, Escherichia coli strain 5, A, Inoculum of 10^2 organisms): 1 µg/mL (≈ 2.2 µM)
MIC (Escherichia coli; read-out: Minimum Inhibitory Concentration, Escherichia coli strain 5, B, Inoculum of 10^6 organisms): 2 µg/mL (≈ 4.4 µM)
MIC (Escherichia coli; read-out: Minimum Inhibitory Concentration, Escherichia coli strain 6, A, Inoculum of 10^2 organisms): 1 µg/mL (≈ 2.2 µM)
MIC (Escherichia coli; read-out: Minimum Inhibitory Concentration, Escherichia coli strain 6, B, Inoculum of 10^6 organisms): 2 µg/mL (≈ 4.4 µM)
MIC (Escherichia coli; read-out: Minimum Inhibitory Concentration, Escherichia coli strain 7, A, Inoculum of 10^2 organisms): 1 µg/mL (≈ 2.2 µM)
MIC (Escherichia coli; read-out: Minimum Inhibitory Concentration, Escherichia coli strain 7, B, Inoculum of 10^6 organisms): 2 µg/mL (≈ 4.4 µM)
MIC (Klebsiella pneumoniae [5]; read-out: Minimum Inhibitory Concentration, Klebsiella pneumoniae strain 1, A, Inoculum of 10^2 organisms): 1 µg/mL (≈ 2.2 µM)
MIC (Klebsiella pneumoniae [5]; read-out: Minimum Inhibitory Concentration, Klebsiella pneumoniae strain 1, B, Inoculum of 10^6 organisms): 2 µg/mL (≈ 4.4 µM)
MIC (Klebsiella pneumoniae [5]; read-out: Minimum Inhibitory Concentration, Klebsiella pneumoniae strain 2, A, Inoculum of 10^2 organisms): 1 µg/mL (≈ 2.2 µM)
MIC (Klebsiella pneumoniae [5]; read-out: Minimum Inhibitory Concentration, Klebsiella pneumoniae strain 2, B, Inoculum of 10^6 organisms): 4 µg/mL (≈ 8.8 µM)
MIC (Klebsiella pneumoniae [5]; read-out: Minimum Inhibitory Concentration, Klebsiella pneumoniae strain 3, A, Inoculum of 10^2 organisms): 1 µg/mL (≈ 2.2 µM)
MIC (Klebsiella pneumoniae [5]; read-out: Minimum Inhibitory Concentration, Klebsiella pneumoniae strain 3, B, Inoculum of 10^6 organisms): 4 µg/mL (≈ 8.8 µM)
MIC (Klebsiella pneumoniae [5]; read-out: Minimum Inhibitory Concentration, Klebsiella pneumoniae strain 4, A, Inoculum of 10^2 organisms): 1 µg/mL (≈ 2.2 µM)
MIC (Klebsiella pneumoniae [5]; read-out: Minimum Inhibitory Concentration, Klebsiella pneumoniae strain 4, B, Inoculum of 10^6 organisms): 4 µg/mL (≈ 8.8 µM)
MIC (Klebsiella pneumoniae [5]; read-out: Minimum Inhibitory Concentration, Klebsiella pneumoniae strain 5, A, Inoculum of 10^2 organisms): 1 µg/mL (≈ 2.2 µM)
MIC (Klebsiella pneumoniae [5]; read-out: Minimum Inhibitory Concentration, Klebsiella pneumoniae strain 5, B, Inoculum of 10^6 organisms): 4 µg/mL (≈ 8.8 µM)
MIC (Klebsiella pneumoniae [5]; read-out: Minimum Inhibitory Concentration, Klebsiella pneumoniae strain 6, A, Inoculum of 10^2 organisms): 1 µg/mL (≈ 2.2 µM)
MIC (Klebsiella pneumoniae [5]; read-out: Minimum Inhibitory Concentration, Klebsiella pneumoniae strain 6, B, Inoculum of 10^6 organisms): 32 µg/mL (≈ 70.4 µM)
MIC (Enterobacter cloacae; read-out: Minimum Inhibitory Concentration, Enterobacter cloacae strain 1, A, Inoculum of 10^2 organisms): 2 µg/mL (≈ 4.4 µM)
MIC (Enterobacter cloacae; read-out: Minimum Inhibitory Concentration, Enterobacter cloacae strain 1, B, Inoculum of 10^6 organisms): > 250 µg/mL
MIC (Enterobacter cloacae; read-out: Minimum Inhibitory Concentration, Enterobacter cloacae strain 2, A, Inoculum of 10^2 organisms): 32 µg/mL (≈ 70.4 µM)
MIC (Enterobacter cloacae; read-out: Minimum Inhibitory Concentration, Enterobacter cloacae strain 2, B, Inoculum of 10^6 organisms): > 250 µg/mL
MIC (Enterobacter cloacae; read-out: Minimum Inhibitory Concentration, Enterobacter cloacae strain 3, A, Inoculum of 10^2 organisms): 8 µg/mL (≈ 17.6 µM)
MIC (Enterobacter cloacae; read-out: Minimum Inhibitory Concentration, Enterobacter cloacae strain 3, B, Inoculum of 10^6 organisms): 250 µg/mL (≈ 550 µM)
MIC (Enterobacter cloacae; read-out: Minimum Inhibitory Concentration, Enterobacter cloacae strain 4, A, Inoculum of 10^2 organisms): 63 µg/mL (≈ 139 µM)
MIC (Enterobacter cloacae; read-out: Minimum Inhibitory Concentration, Enterobacter cloacae strain 4, B, Inoculum of 10^6 organisms): > 250 µg/mL
MIC (Enterobacter cloacae; read-out: Minimum Inhibitory Concentration, Enterobacter cloacae strain 5, A, Inoculum of 10^2 organisms): 8 µg/mL (≈ 17.6 µM)
MIC (Enterobacter cloacae; read-out: Minimum Inhibitory Concentration, Enterobacter cloacae strain 5, B, Inoculum of 10^6 organisms): > 250 µg/mL
MIC (Enterobacter aerogenes; A, Inoculum of 10^2 organisms): 16 µg/mL (≈ 35.2 µM)
MIC (Enterobacter aerogenes; B, Inoculum of 10^6 organisms): > 250 µg/mL
MIC (Proteus mirabilis [6]; read-out: Minimum Inhibitory Concentration, Proteus mirabilis strain 1, A, Inoculum of 10^2 organisms): 4 µg/mL (≈ 8.8 µM)
MIC (Proteus mirabilis [6]; read-out: Minimum Inhibitory Concentration, Proteus mirabilis strain 1, B, Inoculum of 10^6 organisms): 8 µg/mL (≈ 17.6 µM)
MIC (Proteus mirabilis [6]; read-out: Minimum Inhibitory Concentration, Proteus mirabilis strain 2, A, Inoculum of 10^2 organisms): 4 µg/mL (≈ 8.8 µM)
MIC (Proteus mirabilis [6]; read-out: Minimum Inhibitory Concentration, Proteus mirabilis strain 2, B, Inoculum of 10^6 organisms): 16 µg/mL (≈ 35.2 µM)
MIC (Proteus mirabilis [6]; read-out: Minimum Inhibitory Concentration, Proteus mirabilis strain 3, A, Inoculum of 10^2 organisms): 8 µg/mL (≈ 17.6 µM)
MIC (Proteus mirabilis [6]; read-out: Minimum Inhibitory Concentration, Proteus mirabilis strain 3, B, Inoculum of 10^6 organisms): 32 µg/mL (≈ 70.4 µM)
MIC (Proteus mirabilis [6]; read-out: Minimum Inhibitory Concentration, Proteus mirabilis strain 4, A, Inoculum of 10^2 organisms): 4 µg/mL (≈ 8.8 µM)
MIC (Proteus mirabilis [6]; read-out: Minimum Inhibitory Concentration, Proteus mirabilis strain 4, B, Inoculum of 10^6 organisms): 32 µg/mL (≈ 70.4 µM)
MIC (Proteus mirabilis [6]; read-out: Minimum Inhibitory Concentration, Proteus mirabilis strain 5, A, Inoculum of 10^2 organisms): 4 µg/mL (≈ 8.8 µM)
MIC (Proteus mirabilis [6]; read-out: Minimum Inhibitory Concentration, Proteus mirabilis strain 5, B, Inoculum of 10^6 organisms): 16 µg/mL (≈ 35.2 µM)
